In US11345912B2, “Directed evolution of multivalent glycopeptides that tightly bind to target proteins” (Brandeis University, priority 2013, dated 2022):

System: 2G12
Experiment: Binding curve and KD determination of 2G12-glycopeptide interaction (radiolabeled glycopeptide, protein G magnetic bead capture, scintillation counting)
Conditions: Table 4, error = standard error of fit
Protocol: The resulting mRNAs were purified by denaturing PAGE or MEGAclear kit (Ambion), and 1 μM RNA was used in PURE system translation (reaction volume of translation varied). Typically, 25 μL of translated reaction was diluted with 100 μL of binding buffer (50 mM Tris-HCl, pH 7.8, 300 mM NaCl, 5 mM β-mercaptoethanol) and 25 μL of Ni-NTA agarose suspension (Qiagen), and tumbled at room temperature for 1 h. The resins were transferred to 0.22 μm spin-filter rinsing with 100 μL of bind buffer, and washed with 3×200 μL of bind buffer and 2×200 μL of wash buffer (50 mM Tris-HCl, pH 7.8, 5 mM β-mercaptoethanol). The bound peptides were eluted with 2×25 μL of 0.1% TFA. The eluted peptides were analyzed by MALDI-TOF MS, using α-Cyano-4-hydroxycinnamic acid matrix (Sigma), with or without desalting with ZipTip C18 resin (Millipore). For calibration of MALDI-TOF-MS, at least two of the following standards, bovine insulin, E. coli thioredoxin and/or horse apomyoglobin were used. To quantitate peptide yields, the radioactivities were measured by liquid scintillation counting. For the click reaction, the translated and purified peptides were mixed with 0.1% (v/v) Triton X-100, and then dialyzed against H2O containing 0.1% (v/v) Triton X-100 using Slide-A-Lyzer MINI Dialysis Devices, 3.5K MWCO (Thermo Scientific) overnight to desalt. After dialysis, the peptides were divided into two portions: one was glycosylated via the click reaction, while the other was saved as a non-glycosylated peptide control. […] The glycosylated peptide (<4 pmol) was incubated with 100 nM 2G12 in selection buffer (40 μL) at room temp. The solution was then tumbled 30 min with 0.12 mg of equilibrated Dynabeads Protein G to capture 2G12-glycopeptide complex. Beads were then washed with 3×40 μL of selection buffer and resuspended in 10 μL of selection buffer. The resuspended beads were heated at 70° C. for 30 min to denature 2G12 and elute glycopeptides, chilled on ice for 5 min, and tumbled at room temperature for 10 min. The magnetically isolated supernatant was recovered and the beads were rinsed with 10 μL of selection buffer.
Then, the solution was added to 0.12 mg of pre-equilibrated Dynabeads Protein G and tumbled at room temperature for 30 min. The supernatant was removed and the beads were washed with 3×40 μL of selection buffer. The radioactivities of the supernatant and wash solutions were measured by liquid scintillation counting as unbound fractions. […] The beads were resuspended in 40 μL of selection buffer, heated at 70° C. for 30 min to elute the bound glycopeptides, chilled on ice for 5 min, and tumbled at room temperature for 10 min. The supernatant was removed, and the beads were washed with 40 μL of selection buffer and resuspended in 40 μL of selection buffer. The radioactivities of these solutions and suspensions were measured by liquid scintillation counting separately and the values were combined as apparent bound fractions. […] All experiments were done at least in triplicate. KDs were calculated as described in the footnote of Table 4 (below).

`CC[C@H](C)[C@H](NC(=O)[C@H](CCCNC(=N)N)NC(=O)[C@@H]1CCCN1C(=O)[C@H](CC(=O)O)NC(=O)[C@H](CCC(=O)O)NC(=O)[C@@H](NC(=O)[C@H](C)NC(=O)[C@H](Cc1ccc(O)cc1)NC(=O)[C@H](CCC(N)=O)NC(=O)[C@H](CCc1cn(C2CCC(OC3O[C@H](CO[C@H]4O[C@H](CO[C@H]5O[C@H](CO)[C@@H](O)[C@H](O)[C@@H]5O[C@H]5O[C@H](CO)[C@@H](O)[C@H](O)[C@@H]5O)[C@@H](O)[C@H](O[C@H]5O[C@H](CO)[C@@H](O)[C@H](O)[C@@H]5O[C@H]5O[C@H](CO)[C@@H](O)[C@H](O)[C@@H]5O)[C@@H]4O)[C@@H](O)[C@H](O[C@H]4O[C@H](CO)[C@@H](O)[C@H](O)[C@@H]4O[C@H]4O[C@H](CO)[C@@H](O)[C@H](O)[C@@H]4O[C@H]4O[C@H](CO)[C@@H](O)[C@H](O)[C@@H]4O)[C@@H]3O)CC2)nn1)NC(=O)[C@H](CCCNC(=N)N)NC(=O)[C@H](Cc1ccc(O)cc1)NC(=O)[C@H](CCC(=O)O)NC(=O)[C@H](CC(C)C)NC(=O)[C@H](CO)NC(=O)[C@H](CC(N)=O)NC(=O)[C@H](CC(C)C)NC(=O)[C@@H](NC(=O)[C@H](CO)NC(=O)[C@H](CCCNC(=N)N)NC(=O)[C@H](CCc1cn(C2CCC(OC3O[C@H](CO[C@H]4O[C@H](CO[C@H]5O[C@H](CO)[C@@H](O)[C@H](O)[C@@H]5O[C@H]5O[C@H](CO)[C@@H](O)[C@H](O)[C@@H]5O)[C@@H](O)[C@H](O[C@H]5O[C@H](CO)[C@@H](O)[C@H](O)[C@@H]5O[C@H]5O[C@H](CO)[C@@H](O)[C@H](O)[C@@H]5O)[C@@H]4O)[C@@H](O)[C@H](O[C@H]4O[C@H](CO)[C@@H](O)[C@H](O)[C@@H]4O[C@H]4O[C@H](CO)[C@@H](O)[C@H](O)[C@@H]4O[C@H]4O[C@H](CO)[C@@H](O)[C@H](O)[C@@H]4O)[C@@H]3O)CC2)nn1)NC=O)[C@@H](C)O)[C@@H](C)O)C(=O)N[C@@H](CCCNC(=N)N)C(=O)N[C@@H](CCc1cn(C2CCC(OC3O[C@H](CO[C@H]4O[C@H](CO[C@H]5O[C@H](CO)[C@@H](O)[C@H](O)[C@@H]5O[C@H]5O[C@H](CO)[C@@H](O)[C@H](O)[C@@H]5O)[C@@H](O)[C@H](O[C@H]5O[C@H](CO)[C@@H](O)[C@H](O)[C@@H]5O[C@H]5O[C@H](CO)[C@@H](O)[C@H](O)[C@@H]5O)[C@@H]4O)[C@@H](O)[C@H](O[C@H]4O[C@H](CO)[C@@H](O)[C@H](O)[C@@H]4O[C@H]4O[C@H](CO)[C@@H](O)[C@H](O)[C@@H]4O[C@H]4O[C@H](CO)[C@@H](O)[C@H](O)[C@@H]4O)[C@@H]3O)CC2)nn1)C(=O)N[C@@H](C)C(=O)N[C@@H](CO)C(=O)N[C@H](C(=O)N1CCC[C@H]1C(=O)N[C@@H](Cc1ccc(O)cc1)C(=O)N[C@H](C(=O)N[C@@H](Cc1ccc(O)cc1)C(=O)N[C@@H](Cc1c[nH]c2ccccc12)C(=O)N[C@@H](Cc1c[nH]c2ccccc12)C(=O)N1CCC[C@H]1C(=O)NCC(=O)N[C@@H](CO)C(=O)NCC(=O)N[C@@H](CO)C(=O)N[C@@H](CC(C)C)C(=O)NCC(=O)N[C@@H](Cc1c[nH]cn1)C(=O)N[C@@H](Cc1c[nH]cn1)C(=O)N[C@@H](Cc1c[nH]cn1)C(=O)N[C@@H](Cc1c[nH]cn1)C(=O)N[C@@H](Cc1c[nH]cn1)C(=O)N[C@@H](Cc1c[nH]cn1)C(=O)N[C@@H](CCCNC(=N)N)C(=O)N[C@@H](CC(=O)O)C(=O)N[C@@H](Cc1ccc(O)cc1)C(=O)N[C@@H](CCCCN)C(=O)N[C@@H](CC(=O)O)C(=O)N[C@@H](CC(=O)O)C(=O)N[C@@H](CC(=O)O)C(=O)N[C@@H](CC(=O)O)C(=O)N[C@@H](CCCCN)C(=O)O)[C@@H](C)O)[C@@H](C)CC` (some centres unmarked) [Clone 10F9, XRSTLNSLEYRXQYATEDPRIRXASIPYTYWWP] was tested, and the “Fmax [%]” value (maximal fraction bound from curve fit) was 86 ± 1.2% and the Kd (ribosomally translated radiolabeled glycopeptide with His6/FLAG tag, room temperature, fit Fbound=(Fmax[2G12])/(KD+[2G12])) was 3.1 ± 0.17 nM.
